Data: patent publication US12077586B2, “Bispecific antibodies for use in the treatment of hematological malignancies” (LAVA THERAPEUTICS N.V., priority 2018, dated 2024)

Assays:
Jeko-1 cells = assay: Cytotoxicity assay with Vγ9Vδ2-T cell lines, Jeko-1 target cells; assay type: cell-based, human; conditions: 2 hours pretreatment (50 μM pamidronate or 25 μM mevastatin), 1:2; for 1D7-5C8-induced lysis of pretreated Jeko-1 cells: 100 nM 1D7-5C8, 6 hours; for Vγ9Vδ2-T cell-mediated lysis of pretreated Jeko-1 cells: no bispecific antibody, 6 hours
Method: Target cells were then cocultured overnight with Vγ9Vδ2-T cell lines in a 1:1 ratio unless otherwise indicated. Viability was measured using Mitotracker Orange (25-minute incubation at 37° C., M7510) and To-pro-3 (10-minute incubation at room temperature; T3605, both Thermo Fisher Scientific).
If indicated, target cells were pretreated with 25 μM mevastatin (M2537, Sigma-Aldrich), 50 μM aminobisphosphonates (pamidronate, #12J08RD, TEVA Pharmachemie, Haarlem, the Netherlands) or medium control for 2 hours.
If indicated, cells were cultured with the indicated concentrations of all-trans retinoic acid (ATRA; R2625, Sigma-Aldrich) for 48 hours unless otherwise indicated. ATRA was washed away prior to cytotoxicity assays.
If indicated, target cells were pre-incubated with 5 μg/mL anti-CD1d mAb (clone 51.1, 350304, Biolegend, San Diego, CA, USA) and/or 10 μg/mL anti-CD277 mAb (clone 103.2, Creative Biolabs, Shirley, NY, USA) for 10 minutes.

[1] = system: CLL patient-derived Vγ9Vδ2-T cells; assay: Activation, cytokine and degranulation assay with autologous CLL patient-derived Vγ9Vδ2-T cells; assay type: cell-based, human; conditions: overnight culture of CLL PBMC; 1D7-5C8 50 nM
Source text: (A-C) Activation of and cytokine production and degranulation by patient-derived Vγ9Vδ2-T cells. […] (D) Lysis of primary CLL cells by autologous Vγ9Vδ2-T cells. […] Live CLL cells were quantified by flow cytometry using counting beads (n=5). (E) Expansion of patient-derived Vγ9Vδ2-T cells. […] Percentage Vγ9Vδ2-T cells after 1 week (n=8). Data are presented as mean and SD. *P<0.05, **P<0.01, ***P<0.001. (A-D: one-way ANOVA followed by Dunnett's post hoc test compared to medium control; E: paired t-test).

CD1d = biological target: T1, CD1d (Homo sapiens, UniProt P15813); conditions: previously characterized; cited from earlier work
T1 construct: expressed in transfected cells; host or cells: MM.1s (human multiple myeloma cell line) stably transduced with CD1d

iNKT cells = assay: Modulation of iNKT cell activation (co-culture with Hela-CD1d cells); assay type: cell-based, human; conditions: 24 hr co-culture with Hela-CD1d pulsed with vehicle or α-GalCer; 1D12 100 nM, 1D22 1000 nM
Source text: FIG. 1. […] Representative dot-plots illustrating marked activation by 1D12 (A) or inhibition by 1D22 (B) of iNKT cells as depicted by CD25 expression, in addition to a marked increase (by 1D12) or decrease (by 1D22) in iNKT cell IFN-γ production (C and D). Data represent mean+SD of 3-4 individual experiments with iNKT obtained from different donors, **P<0.01, ***P<0.001, calculated with a one-way analysis of variance with Turkey's post hoc test.
To evaluate the capacity of 1D12 and 1D22 to stimulate or inhibit iNKT cell activation, 5×10^4 Hela-CD1d cells were seeded per well in a 96-well tissue culture plate and pulsed overnight with vehicle control (DMSO 0.01%) or 100 ng/ml α-GalCer. Cells were then washed with PBS and incubated with medium, or the anti-CD1d specific VHH for 1 hr at the indicated concentrations. Subsequently, 5×10^4 pure and resting iNKT were added to each well. After 24 hr, culture supernatants were analyzed for (induction or inhibition of) cytokine production by CBA (BD Biosciences) whereas iNKT cells were harvested and analyzed for CD25 expression by flow cytometry.

[2] = biological target: T2, sulfatide-loaded CD1d tetramers (Homo sapiens, UniProt P15813); assay: CD1d-tetramer binding on Jurkat-Vδ1 cells; conditions: ratio VHH:CD1d of ~4:1; tetramer 2 μg/ml
T2 construct: made in house
Method: (§1) FIG. 2. Vδ1-sulf-CD1d interaction is prevented by anti-CD1d VHH 1D12 and reduced by 1D22. Endogenous or sulfatide loaded CD1d-PE tetramers were incubated with either PBS (control), 1D12 or 1D22 (4:1VHH:CD1d ratio) after which tetramers were used to stain Jurkat-Vδ1 cells (final concentration tetramer 2 μg/ml) in combination with CD3-APC. Tetramer binding is prevented by 1D12 and reduced by 1D22 (A). C1R-CD1d cells were incubated with DMSO controls or sulfatide (25 μg/ml) after which medium or anti-CD1d VHH were added at 1000 or 100 nM and incubated for 30 min. Next Jurkat-Vδ1 cells were added and the co-culture was incubated for an additional 24 h after which CD69 expression was determined by flow cytometry (B). N=3.
To evaluate the effect of 1D12 and 1D22 on CD1d-tetramer binding on Jurkat-Vδ1 cells, endogenous or sulfatide-loaded CD1d-PE tetramers were incubated with either PBS (control), 1D12 or 1D22 (ratio VHH:CD1d of ˜4:1) for 30 min at room temperature after which tetramers were added to Jurkat-Vδ1 cells (final concentration tetramer 2 μg/ml) in combination with CD3-APC and incubated for 45 min at 4 degrees Celsius. Data was analyzed by flow cytometry.

Jurkat-Vδ1 cells = assay: Modulation of Jurkat-Vδ1 cell activation (C1R-CD1d co-culture, CD69); assay type: cell-based, human; conditions: C1R-CD1d pulsed with 25 μg/ml sulfatide; VHH 100 nM or 1000 nM; 24 hr
Method: as §1
iNKT cells are known to dock over the extreme F′ pocket of CD1d which contrasts with sulfatide-CD1d restricted Vδ1-T cells that dock more towards the A′ pocket. We therefore evaluated the effect of 1D12 and 1D22 on sulfatide-CD1d restricted Vδ1-T cells. To evaluate the effect of 1D12 and 1D22 on Jurkat-Vδ1 cell activation, 1×10^5 C1R-CD1d cells were seeded per well in a 96-well tissue culture plate and pulsed for 2 hr with vehicle control (DMSO 0.05%) or 25 μg/ml sulfatide. […] After 24 hr Jurkat-Vδ1 cells were harvested and analysed for CD69 expression by flow cytometry. […]

T2 sequence (P15813 20-301 limits assumed): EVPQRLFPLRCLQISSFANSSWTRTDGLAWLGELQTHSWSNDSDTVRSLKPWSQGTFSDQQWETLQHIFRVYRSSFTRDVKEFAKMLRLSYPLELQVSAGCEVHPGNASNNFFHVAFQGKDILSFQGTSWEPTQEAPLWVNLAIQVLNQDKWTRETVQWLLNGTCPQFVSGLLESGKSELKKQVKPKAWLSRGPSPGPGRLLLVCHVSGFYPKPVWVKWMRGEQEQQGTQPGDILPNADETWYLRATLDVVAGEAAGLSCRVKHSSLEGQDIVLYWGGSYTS
T2 sequence (P61769 21-119 partner): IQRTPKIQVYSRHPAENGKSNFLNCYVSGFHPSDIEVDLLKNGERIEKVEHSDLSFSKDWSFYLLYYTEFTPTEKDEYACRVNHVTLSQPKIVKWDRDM
T1 sequence (P15813 20-335): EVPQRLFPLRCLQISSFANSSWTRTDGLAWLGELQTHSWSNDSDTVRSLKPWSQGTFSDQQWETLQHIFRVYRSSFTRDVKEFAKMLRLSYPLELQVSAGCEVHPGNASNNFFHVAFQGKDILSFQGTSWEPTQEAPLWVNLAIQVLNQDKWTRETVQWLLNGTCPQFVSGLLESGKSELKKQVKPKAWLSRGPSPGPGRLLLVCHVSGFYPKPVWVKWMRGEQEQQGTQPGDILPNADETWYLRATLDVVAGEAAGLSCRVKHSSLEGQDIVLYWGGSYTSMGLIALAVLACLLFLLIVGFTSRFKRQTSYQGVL
T1 sequence (P61769 21-119 partner): as the sequence (P61769 21-119 partner) above

For CC[C@H](C)C(=O)O[C@H]1CCC=C2C=C[C@H](C)[C@H](CC[C@@H]3C[C@@H](O)CC(=O)O3)[C@H]21 [mevastatin, reference compound], the “1D7-5C8-induced lysis of pretreated Jeko-1 cells” value (Jeko-1 cells) was “decreased bispecific antibody 1D7-5C8-induced lysis” and the “Vγ9Vδ2-T cell-mediated lysis of pretreated Jeko-1 cells” value (Jeko-1 cells) was “led to a reduction in lysis”.

For NCCC(O)(P(=O)(O)O)P(=O)(O)O [pamidronate, reference compound], the “1D7-5C8-induced lysis of pretreated Jeko-1 cells” value (Jeko-1 cells) was “led to an increase in bispecific antibody 1D7-5C8-induced lysis of Jeko-1 cells”, the “Vγ9Vδ2-T cell-mediated lysis of pretreated Jeko-1 cells” value (Jeko-1 cells) was “more sensitive to Vγ9Vδ2-T cell-mediated cytotoxicity” and the “Upregulation of activation marker CD25 on patient Vγ9Vδ2-T cells” value [1] was 20.5 fold.

B1: 1D7: CD1d-specific VHH, SEQ ID NO: 70 (protein)
VHH: EVQLVESGGGLVQAGGSLRLSCAASVSSFSSYTMGTIRTGGSTNYADSVKGGIRWDDENPYYADSVKGRFTISRDNAKNTLYLQMNSLKPEDTANYYCAARLVPPGIPFERTLENMRYWGKGTLVTVSS
modifications: antibody sequence
In the case of B1, the “Affinity for CD1d” value (CD1d) is listed as “high affinity for CD1d”.

B2: 1D22: anti-CD1d VHH, SEQ ID NO: 84 (protein)
VHH: QVQLVESGGGLVQAGGSLRLSCAASGSIFSINAMGAIRWSGESPYYADSVKGVISSSGSTNYADSVKGRFTISRDNAKNTAYLQMNSLKVEDTAVYYCAAHVAGFDEYNYWGQGTQVTVSS
modifications: antibody sequence
For B2, the “iNKT cell activation (CD25 expression) and cytokine production” value (iNKT cells) was “completely blocked iNKT cell activation and cytokine production”, the “Binding of sulfatide-loaded CD1d tetramers to Jurkat-Vδ1 cells” value [2] was “only a limited impact” and the “Jurkat-Vδ1 cell activation (CD69 expression)” value (Jurkat-Vδ1 cells) was “only a limited impact on expression of the activation marker CD69”.
